# Reference: PMC8436411 (ACS Medicinal Chemistry Letters, 2021)
# “And” between values parts separate entries of the source, which are not always exact repeats. Equal values may be shown once. Read-outs that look alike come from different tables or passages of the source.
# What was measured:
# Experiment in all cases: microbe, parasite or virus in culture
# [1] = tested on: E. coli (ATCC 25922); conditions: Escherichia coli, ATCC25922, read-out: MIC E. coli (ATCC 25922)
# Experimental: (§1) The in vitro antibacterial activity, expressed as minimum inhibitory concentration (MIC), was determined against broad spectrum of bacteria, including Gram-positive (Staphylococcus aureus, methicillin-resistant Staphylococcus aureus, Streptococcus agalactiae, and Enterococcus faecalis) and Gram-negative strains (Escherichia coli, Salmonella alachua, Pseudomonas aeruginosa, and Klebsiella pneumoniae), enriched with various MRSA strains resistant to various antibiotics as well as E. coli strains with increased membrane permeability and lack of efflux pump, as well. […]
# (§2) The minimum inhibitory concentrations (MICs) were determined using the broth micro-dilution method in 96-well plate format according to the Clinical and Laboratory Standards Institute […]
# (§3) guidelines8 and European Committee on Antimicrobial Susceptibility Testing recommendations9. The bacterial suspension of the specific bacterial strain equivalent to the 0.5 McFarland turbidity standard was diluted with cation-adapted Mueller Hinton broth with TES (Thermo Fisher Scientific) to obtain a […]
# (§4) The compounds dissolved in DMSO and inoculum were mixed together and incubated for 20 h at 35 °C.
# [2] = tested on: E. coli D22; conditions: Escherichia coli, D22, read-out: MIC E. coli D2
# Experimental: as §1, §2, §3, §4
# [3] = tested on: E. coli N43 (CGSC no. 5583); conditions: Escherichia coli
# Experimental: as §1, §2, §3, §4
# [4] = tested on: Klebsiella pneumoniae
# Experimental: as §1, §2, §3, §4
# [5] = tested on: MRSA (QA-11.7); conditions: Staphylococcus aureus, read-out: MIC MRSA (QA-11.7)
# Experimental: as §1, §2, §3, §4
# [6] = tested on: MRSA (QA-12.1); conditions: Staphylococcus aureus, read-out: MIC MRSA (QA-12.1)
# Experimental: as §1, §2, §3, §4
# [7] = tested on: Pseudomonas aeruginosa RDK 184 (DSM 939)
# Experimental: as §1, §2, §3, §4
# [8] = tested on: S. aureus (ATCC 29213); conditions: Staphylococcus aureus, ATCC29213, read-out: MIC S. aureus (ATCC 29213)
# Experimental: as §1, §2, §3, §4
# [9] = tested on: Salmonella alachua RDK 030c (QA-1482/04)
# Experimental: as §1, §2, §3, §4
smiles,measurement,setting,value
"O=c1ccc2ncc(=O)n3c2n1C[C@H]3CN1CCC(NCc2cc3c(cn2)OCCC3)CC1 [Gepotidacin, gepotidacin, reference compound]",MIC,[1],2.23 µM and 1 µg/mL
same,MIC,[2],0.279 µM
same,MIC,[3]; read-out: MIC E. coli N43 (CGSC no. 5583),0.016 µg/mL
same,MIC,[3]; read-out: MIC E. coli N43 (CGSC# 5583),0.036 µM
same,MIC,[4]; read-out: MIC K. pneumoniae,17.8 µM
same,MIC,[4]; read-out: MIC Klebsiella pneumoniae,8 µg/mL
same,MIC,[5],0.138 µM and 0.062 µg/mL
same,MIC,[6],0.279 µM and 0.125 µg/mL
same,MIC,"[7]; DSM939, read-out: MIC P. aeruginosa RDK 184 (DSM 939)",17.8 µM
same,MIC,"[7]; DSM939, read-out: MIC Pseudomonas aeruginosa RDK 184 (DSM 939)",8 µg/mL
same,MIC,[8],0.279 µM
same,MIC,[9]; read-out: MIC S. alachua RDK 030c (QA-1482/04),8.92 µM
same,MIC,[9]; read-out: MIC Salmonella alachua RDK 030c (QA-1482/04),4 µg/mL
